Active and inactive are the calls of the source.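 The calls were made as follows: active = compounds giving half or more protection of infected cells from virus-caused growth loss, again on retest; inactive = the rest.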 Where a SMILES comes first, the peptide text is derived from it. The star is where a group is joined. Cbz = O=C(OCc1ccccc1)*
Tested on: CEM cells HIV-1 protection, formazan growth assay
Assay: NCI AIDS Antiviral Assay
Settings: for IC50: measured here: growth of uninfected CEM cells
Procedure, shortened: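 Human CEM cells, uninfected and HIV-1-infected, exposed to five drug concentrations; growth measured by soluble formazan assay and scored as percent protection from infection, with protecting compounds retested.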

Row | SMILES | EC50 [µM] | IC50 [µM] | outcome
1 | COc1ccc2c(c1O)C13CCN(C)C(C2)C12C=CC(=O)C3c1c(O)ccc(O)c12 (centres undefined) | > 200 | 2.95 | –
2 | Brc1ccc(N=NN2CCCCC2)cc1 | > 200 | 18.6 | –
3 | Cc1cc(O)c(C=NC(=S)c2ccccc2)c(=O)o1 | > 200 | > 200 | –
4 | CSc1nc(C)cc(Nc2ccc(O)c(CN3CCCCC3)c2)n1 | > 155 | 64.6 | –
5 | BrCc1ccc(C[P+](c2ccccc2)(c2ccccc2)c2ccccc2)cc1 | > 200 | 3.89 | –
6 | Cn1c(=O)c(Cc2c(O)c3ccccc3n(C)c2=O)c(O)c2ccccc21 | > 7.24 | > 7.24 | –
7 | O=c1c2ccccc2n2n1Cc1ccccc1C2 | > 200 | 102 | –
8 | CC(=O)OC(C)(C)/C=C/C(=O)[C@](C)(O)[C@H]1[C@H](O)C[C@@]2(C)[C@@H]3CC=C4[C@@H](C[C@H](O)C(=O)C4(C)C)[C@]3(CO)C(=O)C[C@]12C | > 4.37 | 0.129 | –
9 | COc1ccc2c(c1)C(=O)Cc1ccccc1CC2 | > 39.8 | > 39.8 | –
10 | COc1ccc(Cl)cc1NC(=O)O/N=C(\Cl)C(C)C | > 20 | 2.51 | –
11 | CN1N=C(c2ccncc2)OC1c1ccc(Cl)cc1Cl (centres undefined) | > 200 | 85.1 | –
12 | Cc1cn(C2CC(n3cncn3)C(C(C)O)O2)c(=O)[nH]c1=O (centres undefined) | > 813 | > 813 | –
13 | COc1cc2c(ccc3c4cc(OC)c(OC)cc4c[n+](C)c23)cc1O | > 324 | 1.48 | –
14 | CN1CC2=C(OC(N)=C(C#N)C2c2cccs2)/C(=C/c2cccs2)C1 (centres undefined) | > 200 | 8.13 | –
15 | CCOC(=O)C(=O)CC(=O)C1=C(c2ccccc2OC)CC(c2cccs2)=CC1=O | > 200 | 32.4 | –
16 | Cc1ccc(C2=[N+]([O-])c3ccccc3C2=O)cc1 | – | – | inactive
17 | Cc1ccc2nc(C(C)C)c(=O)[nH]c2c1 | > 200 | > 200 | –
18 | NCCCCC(=O)NC(CCCCNC(=O)OCc1ccccc1)C(=O)NCCCCC(=O)NC(CCCCNC(=O)OCc1ccccc1)C(=O)NCCCCC(=O)NC(CCCCNC(=O)OCc1ccccc1)C(=O)NCCCCC(=O)NC(CCCCNC(=O)OCc1ccccc1)C(=O)NCCCCC(=O)NC(CCCCNC(=O)OCc1ccccc1)C(=O)O (centres undefined) | > 14.1 | 13.8 | –
19 | COC(=O)CC(=O)Nc1sccc1S(=O)(=O)c1ccccc1 | > 200 | 102 | –

Row | SMILES | EC50 [µM] | IC50 [µM] | outcome
20 | COC(=O)C(CC(C)C)NC(=O)C(CCCN=C(N)N)NC(=O)OCc1ccccc1 (stereo not drawn) (Cbz-Arg-Leu-OMe; configuration not given here) | > 200 | > 200 | –
21 | C[N+](C)(C)CC(=O)N/N=C(/Cc1cc(=O)oc2cc(O)ccc12)C(=O)Nc1ccc(Cl)cc1 | > 51.3 | > 51.3 | –
22 | CNC/C(Cl)=N/S(=O)(=O)c1ccc(C)cc1 | > 58.9 | 2.75 | –
23 | CC1=N/C(=C\c2cccc([N+](=O)[O-])c2)C(=O)O1 | > 562 | > 562 | –
24 | CCOP1(=O)C=C(Sc2ccc([N+](=O)[O-])cc2[N+](=O)[O-])C(C)(C)O1 (centres undefined) | > 200 | 110 | –
25 | NC(=O)c1ccccc1NC(=O)C(=O)C(C(=O)c1ccc(Cl)c(Cl)c1)C1OC(=O)c2ccccc21 (centres undefined) | > 339 | 21.4 | –
26 | COC(C(=O)[O][Ge]([CH3])([CH3])[CH3])c1ccccc1 (centres undefined) | > 251 | > 251 | –
27 | CN1CCc2ccccc2/C(=C(/O)c2ccccc2)C1=O | – | – | inactive
28 | N#C/C(c1nc2ccccc2[nH]1)=c1\s/c(=C/c2ccccc2)c(=O)n1-c1ccccc1 | > 200 | > 200 | –
29 | CCOC(=O)C[n+]1cccc(C2(c3cc4ccccc4[nH]3)OCCO2)c1 | > 200 | > 200 | –
30 | CC1(c2ccccc2)Sc2ccccc2-n2cccc2C1=O (centres undefined) | 1.05 | 3.8 | –
31 | O=C(CCc1nc(=S)[nH][nH]1)Nc1cccc(C(F)(F)F)c1 | > 22.9 | > 22.9 | –
32 | COc1nc2nccnc2c(=O)n1C | > 200 | > 200 | –
33 | Cc1cc2ccccc2c[n+]1CC(=O)CC([O-])(C(F)(F)F)C(F)(F)F | > 200 | 95.5 | –
34 | CC(C)=CCN1CCCn2c(=S)[nH]c3cccc(c32)C1 | > 200 | > 200 | –
35 | CC(=O)OCC1OC(N2C(=O)NC(=O)C3C=C4CCCCC4=CC32)C(OC(C)=O)C1OC(C)=O (centres undefined) | > 200 | > 200 | –
36 | CC1CCCN2C(=O)CN(C3CCCCC3)CC(=O)N12 (centres undefined) | > 200 | > 200 | –
37 | COC(=O)[C@H](Cc1ccccc1)NC(=O)N(CCC#N)CCCCN(CCC#N)C(=O)N[C@@H](Cc1ccccc1)C(=O)OC | > 200 | 115 | –
38 | CCCCn1c(C)c(C)c2c1NN=C(C#N)S2(=O)=O | > 200 | > 200 | –

— PubChem BioAssay AID179 (DTP/NCI, 2004)
